Measured values from PubChem BioAssay AID1259407 (Chemical Carcinogenesis Research Information System (CCRIS), 2018).
Active and inactive are the calls of the source. No rule for the calls is given here.

Tested on: CCRIS mutagenicity, Ames/micronucleus/aberration tests
Assay: CCRIS mutagenicity studies
[1] = Test System: AMES SALMONELLA TYPHIMURIUM, Strain/Indicator: TA98, Metabolic Activation: NONE, Method: STANDARD PLATE
[2] = Test System: AMES SALMONELLA TYPHIMURIUM, Strain/Indicator: TA100, Metabolic Activation: NONE, Method: STANDARD PLATE

Question: Which mutagenic call (Test System: AMES SALMONELLA TYPHIMURIUM, Strain/Indicator: TA98, Metabolic Activation: RAT, LIVER, S-9, PCB, Method: STANDARD PLATE) does the source give for `O=C(O)c1ccccc1Nc1cccc(C(F)(F)F)c1` here?
Answer: inactive; negative

Question: What about the mutagenic call (Test System: AMES SALMONELLA TYPHIMURIUM, Strain/Indicator: TA100, Metabolic Activation: RAT, LIVER, S-9, PCB, Method: STANDARD PLATE) of the same compound?
Answer: inactive; negative

Question: What about the mutagenic call (Test System: AMES SALMONELLA TYPHIMURIUM, Strain/Indicator: TA1537, Metabolic Activation: RAT, LIVER, S-9, PCB, Method: STANDARD PLATE) of the same compound?
Answer: inactive; negative

Question: And the mutagenic call (Test System: AMES SALMONELLA TYPHIMURIUM, Strain/Indicator: TA1538, Metabolic Activation: RAT, LIVER, S-9, PCB, Method: STANDARD PLATE)?
Answer: inactive; negative

Question: What about the mutagenic call (Test System: E. COLI, Strain/Indicator: WP2 UVRA, Metabolic Activation: RAT, LIVER, S-9, PCB, Method: STANDARD PLATE) of the same compound?
Answer: inactive; negative

Question: `CC(=O)N(O)c1ccc(Cl)cc1` was tested. Which mutagenic call [1] did it give?
Answer: inactive; negative

Question: What about the mutagenic call (Test System: AMES SALMONELLA TYPHIMURIUM, Strain/Indicator: TA98, Metabolic Activation: RAT, LIVER, S-9, AROCLOR 1254, Method: STANDARD PLATE) of the same compound?
Answer: inactive; negative

Question: What about the mutagenic call [2] of the same compound?
Answer: inactive; negative

Question: And the mutagenic call (Test System: AMES SALMONELLA TYPHIMURIUM, Strain/Indicator: TA100, Metabolic Activation: RAT, LIVER, S-9, AROCLOR 1254, Method: STANDARD PLATE)?
Answer: inactive; negative

Question: `COc1ccccc1O` was tested. Which mutagenic call (End Point: IN VITRO CHROMOSOMAL ABERRATIONS, Test System: SYRIAN HAMSTER EMBRYO (SHE) CELLS, Metabolic Activation: NONE) did it give?
Answer: active; positive (structural changes)

Question: And the mutagenic call (Test System: AMES SALMONELLA TYPHIMURIUM, Strain/Indicator: TA97, Metabolic Activation: HAMSTER, LIVER, S-9, AROCLOR 1254 (10 OR 30%), Method: VAPOR CHAMBER)?
Answer: inactive; negative

Question: And the mutagenic call (Test System: AMES SALMONELLA TYPHIMURIUM, Strain/Indicator: TA97, Metabolic Activation: NONE, Method: VAPOR CHAMBER)?
Answer: inactive; negative

Question: What about the mutagenic call (Test System: AMES SALMONELLA TYPHIMURIUM, Strain/Indicator: TA97, Metabolic Activation: RAT, LIVER, S-9, AROCLOR 1254 (5, 10 OR 30%), Method: VAPOR CHAMBER) of the same compound?
Answer: inactive; negative

Question: What about the mutagenic call (Test System: AMES SALMONELLA TYPHIMURIUM, Strain/Indicator: TA98, Metabolic Activation: HAMSTER, LIVER, S-9, AROCLOR 1254 (10 OR 30%), Method: VAPOR CHAMBER) of the same compound?
Answer: inactive; negative

Question: What about the mutagenic call (Test System: AMES SALMONELLA TYPHIMURIUM, Strain/Indicator: TA98, Metabolic Activation: HAMSTER, LIVER, S-9, AROCLOR 1254 (30%), Method: PREINCUBATION) of the same compound?
Answer: inactive; negative

Question: What about the mutagenic call (Test System: AMES SALMONELLA TYPHIMURIUM, Strain/Indicator: TA98, Metabolic Activation: NONE, Method: PREINCUBATION) of the same compound?
Answer: inactive; negative

Question: And the mutagenic call (Test System: AMES SALMONELLA TYPHIMURIUM, Strain/Indicator: TA98, Metabolic Activation: NONE, Method: VAPOR CHAMBER)?
Answer: inactive; negative

Question: What about the mutagenic call (Test System: AMES SALMONELLA TYPHIMURIUM, Strain/Indicator: TA98, Metabolic Activation: RAT, LIVER, S-9, AROCLOR 1254 (10 OR 30%), Method: VAPOR CHAMBER) of the same compound?
Answer: inactive; negative

Question: What about the mutagenic call (Test System: AMES SALMONELLA TYPHIMURIUM, Strain/Indicator: TA98, Metabolic Activation: RAT, LIVER, S-9, AROCLOR 1254 (30%), Method: PREINCUBATION) of the same compound?
Answer: inactive; negative

Question: And the mutagenic call (Test System: AMES SALMONELLA TYPHIMURIUM, Strain/Indicator: TA98, Metabolic Activation: RAT, LIVER, S-9, AROCLOR 1254, Method: PREINCUBATION)?
Answer: inactive; negative

Question: And the mutagenic call (Test System: AMES SALMONELLA TYPHIMURIUM, Strain/Indicator: TA100, Metabolic Activation: HAMSTER, LIVER, S-9, AROCLOR 1254 (5, 10 OR 30%), Method: VAPOR CHAMBER)?
Answer: inactive; negative

Question: What about the mutagenic call (Test System: AMES SALMONELLA TYPHIMURIUM, Strain/Indicator: TA100, Metabolic Activation: HAMSTER, LIVER, S-9, AROCLOR 1254 (30%), Method: PREINCUBATION) of the same compound?
Answer: inactive; negative

Question: What about the mutagenic call (Test System: AMES SALMONELLA TYPHIMURIUM, Strain/Indicator: TA100, Metabolic Activation: NONE, Method: PREINCUBATION) of the same compound?
Answer: inactive; negative

Question: And the mutagenic call (Test System: AMES SALMONELLA TYPHIMURIUM, Strain/Indicator: TA100, Metabolic Activation: NONE, Method: VAPOR CHAMBER)?
Answer: inactive; negative

Question: And the mutagenic call (Test System: AMES SALMONELLA TYPHIMURIUM, Strain/Indicator: TA100, Metabolic Activation: RAT, LIVER, S-9, AROCLOR 1254 (5, 10 OR 30%), Method: VAPOR CHAMBER)?
Answer: inactive; negative

Question: And the mutagenic call (Test System: AMES SALMONELLA TYPHIMURIUM, Strain/Indicator: TA100, Metabolic Activation: RAT, LIVER, S-9, AROCLOR 1254 (30%), Method: PREINCUBATION)?
Answer: inactive; negative

Question: What about the mutagenic call (Test System: AMES SALMONELLA TYPHIMURIUM, Strain/Indicator: TA100, Metabolic Activation: RAT, LIVER, S-9, AROCLOR 1254, Method: PREINCUBATION) of the same compound?
Answer: inactive; negative

Question: And the mutagenic call (Test System: AMES SALMONELLA TYPHIMURIUM, Strain/Indicator: TA102, Metabolic Activation: NONE, Method: PREINCUBATION)?
Answer: inactive; negative

Question: What about the mutagenic call (Test System: AMES SALMONELLA TYPHIMURIUM, Strain/Indicator: TA102, Metabolic Activation: RAT, LIVER, S-9, AROCLOR 1254, Method: PREINCUBATION) of the same compound?
Answer: inactive; negative

Question: And the mutagenic call (Test System: AMES SALMONELLA TYPHIMURIUM, Strain/Indicator: TA1535, Metabolic Activation: HAMSTER, LIVER, S-9, AROCLOR 1254 (10 OR 30%), Method: VAPOR CHAMBER)?
Answer: inactive; negative

Question: And the mutagenic call (Test System: AMES SALMONELLA TYPHIMURIUM, Strain/Indicator: TA1535, Metabolic Activation: NONE, Method: VAPOR CHAMBER)?
Answer: inactive; negative

Question: And the mutagenic call (Test System: AMES SALMONELLA TYPHIMURIUM, Strain/Indicator: TA1535, Metabolic Activation: RAT, LIVER, S-9, AROCLOR 1254 (10 OR 30%), Method: VAPOR CHAMBER)?
Answer: inactive; negative

Question: Which results are given for `O=C(Nc1cccc(Br)c1)c1csc([N+](=O)[O-])c1`?
Answer: mutagenic call [1]: active; positive; mutagenic call [2]: active; positive

Question: With `O=C1OC(O)C(C(Br)Br)=C1Br` (stereo not drawn) as the compound, how does the mutagenic call [1] read?
Answer: active; positive

Question: What about the mutagenic call (Test System: AMES SALMONELLA TYPHIMURIUM, Strain/Indicator: TA98, Metabolic Activation: RAT LIVER S-9, AROCLOR 1254, Method: STANDARD PLATE) of the same compound?
Answer: inactive; negative

Question: And the mutagenic call [2]?
Answer: active; positive

Question: What about the mutagenic call (Test System: AMES SALMONELLA TYPHIMURIUM, Strain/Indicator: TA100, Metabolic Activation: RAT LIVER S-9, AROCLOR 1254, Method: STANDARD PLATE) of the same compound?
Answer: inactive; negative
